Reference: patent US20240034737A1, “Heterocyclic Derivatives as P2X7 Receptor Antagonists” (BREYE THERAPEUTICS APS, priority 2020, published 2024)

Legend:
mP2X7 = mP2X7 (Mus musculus (Mouse), UniProt Q9Z1M0); test: mP2X7 channel calcium-influx assay (Fluo-8 NW, FLIPR TETRA, Bz-ATP stimulation); format: cell-based
How it was run: (§1)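 HEK-293 cells stably expressing human or mouse P2X7, preloaded with Fluo-8 NW dye for 1 h at RT. Compounds added, Bz-ATP-evoked Ca2+ influx followed as fluorescence kinetics over 5 min on FLIPR TETRA; A438079 served as reference antagonist.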

CYP4503A4 = CYP4503A4 metabolic induction (mRNA expression) in human cryopreserved platable hepatocytes; format: in vitro ADME; details: 10 μM test compound, two days treatment, mRNA by QuantiGene Plex 2.0
Experimental: In Vitro Evaluation of Test Compounds for CYP4503A4 Metabolic Induction Using Human Liver Hepatocytes.
CYP induction assessment was performed using human cryopreserved platable hepatocytes. Test compound was assessed at three or six different concentrations in duplicate.
A sandwich culture of platable cryopreserved hepatocytes was used with one day recovery period after plating. Assessment of cell morphology and confluency was performed using a phase-contrast microscope for representative wells.
The plated hepatocyte cell monolayers were treated with test compound, negative and positive controls for two days changing medium every 24 hours. On the fourth day, assessment of cell morphology and confluency was repeated to ensure cell monolayer integrity. Assessment of cell morphology and confluency was performed using a phase-contrast microscope for representative wells.
Cell monolayers were assessed for test compound cytotoxicity by an adenosine triphosphate (ATP) content assay in a separate plate.
Expression levels of mRNA for CYP1A2, CYP2B6, and CYP3A4 were evaluated by the QuantiGene® Plex 2.0 methodology.

P2X7 receptor = P2X7 receptor (Homo sapiens (Human), UniProt Q99572); test: Human P2X7 channel calcium-influx assay (Fluo-8 NW, FLIPR TETRA, Bz-ATP stimulation); format: cell-based; details: HEK-293 cells stably transfected with P2X7 receptor, Low Divalent Cation Assay Buffer, read-out: hP2X7 IC50
How it was run: as §1

P2X7 receptor, sequence (Q99572 whole entry): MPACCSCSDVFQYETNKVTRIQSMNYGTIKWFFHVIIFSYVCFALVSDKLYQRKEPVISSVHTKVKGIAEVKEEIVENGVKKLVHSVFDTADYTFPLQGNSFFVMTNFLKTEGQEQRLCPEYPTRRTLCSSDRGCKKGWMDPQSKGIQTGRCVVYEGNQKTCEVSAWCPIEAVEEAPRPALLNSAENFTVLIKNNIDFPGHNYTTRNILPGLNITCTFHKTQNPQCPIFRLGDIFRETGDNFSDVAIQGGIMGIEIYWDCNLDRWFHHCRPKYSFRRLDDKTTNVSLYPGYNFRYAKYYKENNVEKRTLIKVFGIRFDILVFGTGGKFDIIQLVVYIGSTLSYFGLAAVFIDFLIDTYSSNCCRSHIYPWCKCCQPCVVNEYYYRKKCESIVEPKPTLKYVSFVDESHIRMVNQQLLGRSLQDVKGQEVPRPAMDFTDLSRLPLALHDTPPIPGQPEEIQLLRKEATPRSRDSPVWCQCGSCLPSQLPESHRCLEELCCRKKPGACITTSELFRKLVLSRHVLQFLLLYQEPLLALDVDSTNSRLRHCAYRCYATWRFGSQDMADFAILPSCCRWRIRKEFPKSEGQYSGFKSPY
mP2X7, sequence (Q9Z1M0 whole entry): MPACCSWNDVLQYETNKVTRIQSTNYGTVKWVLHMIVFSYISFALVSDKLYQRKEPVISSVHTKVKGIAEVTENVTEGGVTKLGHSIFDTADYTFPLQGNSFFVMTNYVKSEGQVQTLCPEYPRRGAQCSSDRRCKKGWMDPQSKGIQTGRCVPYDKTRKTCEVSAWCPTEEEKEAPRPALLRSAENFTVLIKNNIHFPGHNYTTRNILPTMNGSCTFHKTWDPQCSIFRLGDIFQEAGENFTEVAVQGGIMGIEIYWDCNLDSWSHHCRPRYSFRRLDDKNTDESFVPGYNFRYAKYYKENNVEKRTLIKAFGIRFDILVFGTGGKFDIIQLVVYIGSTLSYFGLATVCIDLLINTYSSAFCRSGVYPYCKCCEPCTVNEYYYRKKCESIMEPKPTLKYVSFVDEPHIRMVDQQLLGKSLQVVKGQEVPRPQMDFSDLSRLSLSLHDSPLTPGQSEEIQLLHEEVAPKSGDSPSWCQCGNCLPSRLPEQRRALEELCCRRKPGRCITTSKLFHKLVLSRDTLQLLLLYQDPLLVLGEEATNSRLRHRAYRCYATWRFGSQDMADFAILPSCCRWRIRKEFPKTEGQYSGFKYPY

SMILES | IC50 (mP2X7) | CYP4503A4 mRNA fold increase at 10 μM (CYP4503A4) | IC50 (P2X7 receptor)
O=C(NCC(c1scnc1C(F)F)N1CCC(COc2ccnc(F)c2)CC1)c1c(F)cccc1Cl (stereo not drawn) [Example 125, 2-Chloro-N-{2-[4-(difluoromethyl)-1,3-thiazol-5-yl]-2-(4-{[(2-fluoropyridin-4-yl)oxy]methyl}piperidin-1-yl)ethyl}-6-fluorobenzamide] | 23 nM | 5.5 fold | 16.1 nM
N#Cc1cc(OC2CCN(C(CNC(=O)c3c(F)cccc3Cl)c3scnc3C(F)F)CC2)ccn1 (stereo not drawn) [Example 127, 2-Chloro-N-(2-{4-[(2-cyanopyridin-4-yl)oxy]piperidin-1-yl}-2-[4-(difluoromethyl)-1,3-thiazol-5-yl]ethyl)-6-fluorobenzamide] | 61.7 nM | 6.3 fold | 49 nM
